From PubChem BioAssay (NCI)
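A five-concentration, 48-hour dose response in 96-well plates underlies each endpoint, interpolated linearly between surrounding concentrations. At the TGI there is no net growth.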

Experiments:
Experiment in all cases: DTP human tumour cell line panel, 48 h
[1] = test system: UACC-62 melanoma
[2] = test system: OVCAR-5 ovarian
[3] = test system: RPMI-8226 leukemia
[4] = test system: SF-539 CNS
[5] = test system: MDA-MB-435
[6] = test system: HCC-2998 colon
[7] = test system: SK-MEL-2 melanoma
[8] = test system: OVCAR-3 ovarian
[9] = test system: K-562 leukemia
[10] = test system: LOX IMVI melanoma
[11] = test system: PC-3 prostate
[12] = test system: HS 578T breast
[13] = test system: SK-MEL-28 melanoma
[14] = test system: MOLT-4 leukemia
[15] = test system: RXF 393 renal
[16] = test system: CCRF-CEM leukemia
[17] = test system: HT29 colon
[18] = test system: ACHN renal
[19] = test system: MCF7 breast
[20] = test system: M14 melanoma
[21] = test system: SK-OV-3 ovarian
[22] = test system: TK-10 renal
[23] = test system: HL-60(TB) leukemia
[24] = test system: UACC-257 melanoma
[25] = test system: MDA-N
[26] = test system: KM12 colon
[27] = test system: T-47D breast
[28] = test system: A549 NSCLC
[29] = test system: NCI-H460 lung
[30] = test system: SNB-75 CNS
[31] = test system: CAKI-1 renal
[32] = test system: COLO 205 colon
[33] = test system: SNB-19 CNS
[34] = test system: HOP-92 NSCLC
[35] = test system: U251 CNS
[36] = test system: SK-MEL-5 melanoma
[37] = test system: HCT-15 colon
[38] = test system: OVCAR-4 ovarian
[39] = test system: IGROV1 ovarian
[40] = test system: SF-295 CNS
[41] = test system: BT-549 breast
[42] = test system: SN12C renal
[43] = test system: NCI/ADR-RES ovarian
[44] = test system: SF-268 CNS
[45] = test system: DU-145 prostate
[46] = test system: HOP-62 NSCLC
[47] = test system: 786-0 renal
[48] = test system: MDA-MB-231 breast
[49] = test system: SR leukemia
[50] = test system: NCI-H23 lung
[51] = test system: SW-620 colon
[52] = test system: HCT-116 colon
[53] = test system: MALME-3M melanoma
[54] = test system: UO-31 renal
[55] = test system: EKVX NSCLC
[56] = test system: NCI-H522 lung
[57] = test system: NCI-H226 lung
[58] = test system: A498 renal
[59] = test system: OVCAR-8 ovarian

With `COc1ccc(-c2c3c(n(C4OC(CO)C(O)C(O)C4O)c(=S)c2C#N)CCC3)cc1` (configuration not stated) the TGI [1] was > 100 µM, the TGI [2] was > 100 µM and the TGI [3] was > 100 µM. The TGI [4] was > 100 µM, the TGI [5] was > 100 µM and the TGI [6] was > 100 µM. For the same compound, the TGI [7] was > 100 µM, the TGI [8] was 69.6 µM and the TGI [9] was > 100 µM. For the same compound, the TGI [10] was > 100 µM, the TGI [11] was > 100 µM and the TGI [12] was > 100 µM. For the same compound, the TGI [13] was > 100 µM, the TGI [14] was 85.4 µM and the TGI [15] was 63.6 µM. For the same compound, the TGI [16] was > 100 µM, the TGI [17] was > 100 µM and the TGI [18] was > 100 µM. For the same compound, the TGI [19] was > 100 µM, the TGI [20] was > 100 µM and the TGI [21] was > 100 µM. The TGI [22] was > 100 µM, the TGI [23] was > 100 µM and the TGI [24] was > 100 µM. For the same compound, the TGI [25] was > 100 µM, the TGI [26] was > 100 µM and the TGI [27] was > 100 µM. The TGI [28] was > 100 µM, the TGI [29] was > 100 µM and the TGI [30] was > 100 µM. The TGI [31] was > 100 µM, the TGI [32] was > 100 µM and the TGI [33] was > 100 µM. For the same compound, the TGI [34] was > 100 µM, the TGI [35] was > 100 µM and the TGI [36] was 38.8 µM. For the same compound, the TGI [37] was > 100 µM, the TGI [38] was > 100 µM and the TGI [39] was > 100 µM. The TGI [40] was > 100 µM, the TGI [41] was > 100 µM and the TGI [42] was > 100 µM. For the same compound, the TGI [43] was > 100 µM, the TGI [44] was > 100 µM and the TGI [45] was > 100 µM. For the same compound, the TGI [46] was > 100 µM, the TGI [47] was > 100 µM and the TGI [48] was > 100 µM. For the same compound, the TGI [49] was > 100 µM, the TGI [50] was > 100 µM and the TGI [51] was > 100 µM. The TGI [52] was > 100 µM, the TGI [53] was > 100 µM and the TGI [54] was > 100 µM.

For `CCC(CO)Nc1nc(NCc2ccccc2)c2ncn(C(C)C)c2n1` (configuration not stated), the TGI [1] was 47 µM, the TGI [2] was > 69.1 µM and the TGI [3] was > 100 µM. The TGI [4] was 26.4 µM, the TGI [5] was > 68.1 µM and the TGI [6] was 34.7 µM. For the same compound, the TGI [7] was 38.9 µM, the TGI [8] was 37.9 µM and the TGI [9] was > 100 µM. For the same compound, the TGI [10] was > 100 µM, the TGI [11] was 37.1 µM and the TGI [12] was 27.3 µM. For the same compound, the TGI [13] was 34.4 µM, the TGI [15] was 20.9 µM and the TGI [16] was > 86.8 µM. For the same compound, the TGI [17] was 52.5 µM, the TGI [18] was > 100 µM and the TGI [19] was > 57.3 µM. The TGI [20] was 32.7 µM, the TGI [21] was > 100 µM and the TGI [22] was > 84.6 µM. For the same compound, the TGI [23] was > 70.5 µM, the TGI [24] was > 94.7 µM and the TGI [25] was > 100 µM. The TGI [26] was 36.3 µM, the TGI [27] was > 100 µM and the TGI [28] was > 100 µM. For the same compound, the TGI [29] was > 100 µM, the TGI [30] was 26.8 µM and the TGI [31] was > 82.5 µM. For the same compound, the TGI [32] was 34.1 µM, the TGI [33] was > 100 µM and the TGI [34] was 56.2 µM. The TGI [35] was > 100 µM, the TGI [36] was > 51.8 µM and the TGI [37] was > 100 µM. For the same compound, the TGI [38] was > 58.1 µM, the TGI [39] was > 100 µM and the TGI [40] was 50.9 µM. For the same compound, the TGI [55] was 49.5 µM, the TGI [41] was > 55.3 µM and the TGI [42] was > 100 µM. For the same compound, the TGI [43] was 42.3 µM, the TGI [44] was 40.4 µM and the TGI [45] was > 100 µM. The TGI [56] was 55.4 µM, the TGI [46] was 33.9 µM and the TGI [57] was 39.4 µM. For the same compound, the TGI [47] was > 80.7 µM, the TGI [48] was > 94.5 µM and the TGI [49] was 19 µM. For the same compound, the TGI [50] was 36.1 µM, the TGI [51] was > 79 µM and the TGI [58] was 77.3 µM. The TGI [52] was > 90.2 µM, the TGI [59] was 57.5 µM and the TGI [53] was 59.3 µM. The TGI [54] was 40.7 µM.
